Activity calls are given as the source filed them. The calls are words filed in the database; no cut-off is given here. Some results are limits rather than exact numbers.

For orientation: Papp A→B means how fast a substance crosses the layer from the apical side. Usually Papp B→A stands for the apparent permeability from the basolateral to the apical side of a cell layer. For orientation: half-life means the time in which the quantity being followed falls by half. The term ΔTm denotes the change in melting temperature against a reference sample. As usually defined, the Ki is the equilibrium dissociation constant of an inhibitor or competing ligand from its target. What is called Kd is the free concentration of one partner at which half of the binding sites on the other are occupied at equilibrium, for simple one-to-one binding.

In series [1] the test system is BCRP. Kind of series: Apparent permeability across apical to basolateral side in MDCK-II-BCRP cells at 3 uM preincubated with BCRP inhibitor, Ko 143 for 15 to 30 mins followed by compound addition and measured after 60 to 90 mins by LC-MS/MS analysis. Type of series: ADME, cell-based, Canis lupus familiaris. The following applies: dog, with Ko 143 (BCRP inhibitor; concentration not stated), time 60-90 min.

Series [2] in a line: Metabolic stability in mouse hepatocytes assessed as intrinsic clearance per 10^6 cells at 0.5 uM incubated in presence of NADPH regenerating system and measured for 120 mins by LC-MS/MS analysis. The note with it: read-out: CLH. Format: ADME, cell-based, Hepatocyte.
Series [3] relates to MDR1 (P-gp). As to the kind of experiment: Apparent permeability across basolateral to apical side in MDCKII-MDR1 cells at 3 uM preincubated with P-gp/BCRP transporter dual inhibitor, elacridar for 15 to 30 mins followed by compound addition and measured after 60 to 90 mins by LC-MS/MS analysis. Type of series: ADME, cell-based, Canis lupus familiaris, MDCK-MDR1. The note with it: dog, time 60-90 min.

For series [4], the system named is MDR1 (P-gp). Kind of series: Apparent permeability across apical to basolateral side in MDCKII-MDR1 cells at 3 uM measured after 60 to 90 mins by LC-MS/MS analysis. Type of series: ADME, cell-based, Canis lupus familiaris. The note with it: dog, MDCK-MDR1, time 60-90 min.
The subject of series [5] is BCRP. Kind of series: Apparent permeability across basolateral to apical side in MDCK-II-BCRP cells at 3 uM measured after 60 to 90 mins by LC-MS/MS analysis. Type of series: ADME, cell-based, Canis lupus familiaris. The note with it: dog, time 60-90 min.
Series [6] deals with BCRP. As to the kind of experiment: Apparent permeability across apical to basolateral side in MDCK-II-BCRP cells at 3 uM measured after 60 to 90 mins by LC-MS/MS analysis. Type of series: ADME, cell-based, Canis lupus familiaris. The following applies: dog, time 60-90 min.
Series [7] concerns MDR1 (P-gp). As to the kind of experiment: Apparent permeability across basolateral to apical side in MDCKII-MDR1 cells at 3 uM measured after 60 to 90 mins by LC-MS/MS analysis. Format: ADME, cell-based, Canis lupus familiaris. The note with it: dog, MDCK-MDR1, time 60-90 min.
Series [8] deals with MDR1 (P-gp). Kind of series: Apparent permeability across apical to basolateral side in MDCKII-MDR1 cells at 3 uM preincubated with P-gp/BCRP transporter dual inhibitor, elacridar for 15 to 30 mins followed by compound addition and measured after 60 to 90 mins by LC-MS/MS analysis. The following applies: dog, time 60-90 min. Format: ADME, cell-based, Canis lupus familiaris, MDCK-MDR1.

Series [9] in a line: Metabolic stability in human hepatocytes assessed as intrinsic clearance per 10^6 cells at 0.5 uM incubated in presence of NADPH regenerating system and measured for 120 mins by LC-MS/MS analysis. Format: ADME, cell-based, Hepatocyte. The note with it: read-out: CLH.
A short description of series [10]: Half life in ip dosed mouse. Format: ADME, organism-based. The note with it: in vivo.
Series [11] can be described thus: Drug concentration in C57BL/6J mouse plasma at 10 mg/kg, po by HPLC-MS/MS analysis. Type of series: ADME, organism-based. The note with it: in vivo.
The nature of series [12]: Metabolic stability in human liver microsomes assessed as intrinsic clearance per mg of protein at 0.5 uM incubated in presence of NADPH regenerating system and measured for 45 mins by LC-MS/MS analysis. The note with it: read-out: CLH. Type of series: ADME, Microsome. For orientation: Liver microsomes are vesicles of endoplasmic reticulum, rich in cytochrome P450 enzymes.

Series [13] is described as follows: Ratio of drug concentration in brain to plasma in C57BL/6J mouse at 10 mg/kg, po measured at 30 mins by HPLC-MS/MS analysis. The following applies: read-out: BPR. Type of series: ADME, organism-based.
A short description of series [14]: Metabolic stability in mouse liver microsomes assessed as intrinsic clearance per mg of protein at 0.5 uM incubated in presence of NADPH regenerating system and measured for 45 mins by LC-MS/MS analysis. Type of series: ADME, Microsome. The following applies: read-out: CLH.
Series [15] in a line: Drug concentration in C57BL/6J mouse brain at 10 mg/kg, po by HPLC-MS/MS analysis. Format: ADME, organism-based. The following applies: in vivo.
In series [16] the test system is BCRP. As to the kind of experiment: Apparent permeability across basolateral to apical side in MDCK-II-BCRP cells at 3 uM preincubated with BCRP inhibitor, Ko 143 for 15 to 30 mins followed by compound addition and measured after 60 to 90 mins by LC-MS/MS analysis. Format: ADME, cell-based, Canis lupus familiaris. The following applies: dog, with Ko 143 (BCRP inhibitor; concentration not stated), time 60-90 min.

A short description of series [17]: Unbound brain-to-plasma partition coefficient in C57BL/6J mouse at 10 mg/kg, po measured at 30 mins by HPLC-MS/MS analysis. Format: ADME, organism-based. The following applies: read-out: K(p,uu,brain).
For series [18], the target named is T1, Calcium/calmodulin-dependent protein kinase type II subunit alpha (Homo sapiens, UniProt Q9UQM7). Kind of series: Binding affinity to recombinant human CaMK2alpha 6x hub domain (345 to 475 residues) expressed in Escherichia coli BL21 DE3 assessed as thermal stability by measuring change in melting temperature at 5 to 1280 uM by SYPRO orange dye based differential scanning fluorimetry. The note with it: dose 5-1280 µM. On the technique in general: In DSF a fluorescence change marks the thermal transition of the protein.

Series [19] addresses T1, Calcium/calmodulin-dependent protein kinase type II subunit alpha. The following applies: filed as modulator.
Description: Binding affinity to recombinant human CaMK2alpha 6x hub domain (345 to 475 residues) expressed in Escherichia coli BL21 DE3 assessed as dissociation rate constant by surface plasmon resonance assay
The target in series [20] is T2, Calcium/calmodulin-dependent protein kinase type II subunit alpha (Rattus norvegicus, UniProt P11275). Kind of series: Displacement of [3H]HOCPCA from recombinant rat CaMK2alpha expressed in HEK293T cells measured after 1 hr by liquid scintillation counting method. Format: cell-based. A general note: In a radioligand displacement assay an active substance lowers the binding of a labelled ligand.

Series [21] deals with T1, Calcium/calmodulin-dependent protein kinase type II subunit alpha. As to the kind of experiment: Binding affinity to recombinant human CaMK2alpha 6x hub domain (345 to 475 residues) expressed in Escherichia coli BL21 DE3 assessed as dissociation constant by surface plasmon resonance assay.
In series [22] the target is T2, Calcium/calmodulin-dependent protein kinase type II subunit alpha. Kind of series: Displacement of [3H]NCS-382 from CaMK2alpha in rat brain cortical membrane homogenates measured after 1 hr by TopCount scintillation counting method. Format: cell membranes, Cortex.
The target is the same in series [23]. Kind of series: Displacement of [3H]HOCPCA from native CaMK2alpha in rat brain cortical membrane homogenates measured after 1 hr by TopCount scintillation counting method. Format: cell membranes, Cortex.
Series [24] concerns the target T1, Calcium/calmodulin-dependent protein kinase type II subunit alpha. As to the kind of experiment: Binding affinity to recombinant human CaMK2alpha 6x hub domain (345 to 475 residues) Trp403 residue assessed as quenching of intrinsic tryptophan fluorescence at 9.8 to 29 uM by Trp flip assay. The following applies: filed as modulator, dose 9.8-29 µM.

T2 sequence (P11275 whole entry): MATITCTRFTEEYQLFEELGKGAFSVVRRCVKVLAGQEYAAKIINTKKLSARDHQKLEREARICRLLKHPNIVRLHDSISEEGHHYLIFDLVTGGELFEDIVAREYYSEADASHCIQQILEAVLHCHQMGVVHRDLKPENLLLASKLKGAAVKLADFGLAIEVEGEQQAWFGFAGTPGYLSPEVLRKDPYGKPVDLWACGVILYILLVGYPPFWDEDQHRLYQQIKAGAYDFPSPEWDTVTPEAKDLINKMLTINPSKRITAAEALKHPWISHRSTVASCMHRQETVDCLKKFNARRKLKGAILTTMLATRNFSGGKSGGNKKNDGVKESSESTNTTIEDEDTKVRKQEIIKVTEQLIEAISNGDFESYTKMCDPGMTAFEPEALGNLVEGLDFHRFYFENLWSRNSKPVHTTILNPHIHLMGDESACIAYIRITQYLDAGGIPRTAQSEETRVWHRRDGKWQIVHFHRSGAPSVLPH
T1 sequence (Q9UQM7 whole entry, the tested form may be a part): as the sequence (P11275 whole entry) above, with N324S counted along it

On to `O=C([O-])/C=C1\CCCc2cc(-c3ccccc3)ccc2C1O.[Na+]` (stereo unspecified), for which the Papp A→B at 3 µM with BCRP [1] is 15.9 ×10⁻⁶ cm/s; in the series with MDR1 (P-gp) [4], 13 ×10⁻⁶ cm/s; in the series with BCRP [6], 15.8 ×10⁻⁶ cm/s; in the series on MDR1 (P-gp) [8], 12.9 ×10⁻⁶ cm/s. For the same compound, the results for the hepatocyte CLint at 0.5 µM in [2] and in series [9] were 65 µL/min/1e6 cells and 8.6 µL/min/1e6 cells, respectively. Besides, the Papp B→A at 3 µM was 15 ×10⁻⁶ cm/s in the series on MDR1 (P-gp) [3], 19.4 ×10⁻⁶ cm/s in the series with BCRP [5], 16.3 ×10⁻⁶ cm/s with MDR1 (P-gp) [7] and 16.5 ×10⁻⁶ cm/s in the series with BCRP [16]. The half-life in series [10] was 18 min. Also, the Cp in series [11] was determined as 1450 ng/mL. For the same compound, the microsomal CLint at 0.5 µM in series [12] and in series [14] was over 9.9 µL/min/mg throughout. The Kp at 0.5 h in series [13] came to 0.1. This compound returned a Ct in [15] of 99.1 ng/mL. In addition, the Kp uu at 0.5 h in series [17] came to 0.85.
As for `O=C(O)/C=C1\CCCc2ccccc2C1O` (stereo unspecified), the ΔTm in [18] is 16.7 °C. Moreover, in series [19], the Kdiss turned out to be 0.75 s⁻¹. Also, the Ki stood at 3900 nM in [20], 340 nM in series [22] and 590 nM in series [23]. Moreover, in series [21], the Kd came out at 8900 nM.
Regarding `O=C(O)/C=C1\CCCc2c(/C=C/c3c(Cl)cccc3Cl)cccc2C1O` (stereo unspecified), the Ki in [22] amounted to 110 nM.
Same read-out and setting: the result for `O=C(O)/C=C1\CCCc2cc(/C=C/c3ccccc3)ccc2C1O` (stereo unspecified) reads 40 nM; that for `O=C(O)/C=C1\CCCc2cc(F)ccc2C1O` (stereo unspecified), 110 nM.
Consider `O=C(O)/C=C1\CCCc2c(/C=C/c3ccccc3)cccc2C1O` (stereo unspecified), for which, in series [24], the outcome was Active. Besides, the Ki turned out to be 14000 nM in [22] and 81 nM in [23].
For the compound `O=C(O)C1=CC(O)CC1` (stereo unspecified), the Ki in series [20] is 1800 nM; in series [22], 160 nM; in [23], 130 nM.
`Cc1ccc2c(c1)CCC/C(=C\C(=O)O)C2O` (stereo unspecified): in series [22], the Ki is 320 nM.
Still for that read-out and setting: the result for `O=C(O)/C=C1\CCCc2c(Br)cccc2C1O` (stereo unspecified) reads 230 nM; that for `O=C(O)/C=C1\CCCc2ccc(-c3ccccc3)cc2C1O` (stereo unspecified), 14000 nM.
On the same count and under the same terms, the same measure for `O=C(O)/C=C1\CCCc2c(CCc3ccccc3)cccc2C1O` (stereo unspecified): 56 nM.

The values above are taken from ChEMBL document CHEMBL5096232, “Exploring the NCS-382 Scaffold for CaMKIIα Modulation: Synthesis, Biochemical Pharmacology, and Biophysical Characterization of Ph-HTBA as a Novel High-Affinity Brain-Penetrant Stabilizer of the CaMKIIα Hub Domain” (J Med Chem, 2022).
